In ChEMBL document CHEMBL5523704, “Exploration of isoxazole analogs: Synthesis, COX inhibition, anticancer screening, 3D multicellular tumor spheroids, and molecular modeling” (Eur J Med Chem, 2024):
Values after ≈ are worked out from the molar mass of the structure shown.

Key:
[1] = biological target: T1, Prostaglandin G/H synthase 1 (Bos taurus, UniProt O62664); experiment: Inhibition of bovine COX-1 using arachidonic acid as substrate preincubated for 10 mins followed by substrate addition and measured after 5 mins by ELISA method
T1 sequence (O62664 whole entry): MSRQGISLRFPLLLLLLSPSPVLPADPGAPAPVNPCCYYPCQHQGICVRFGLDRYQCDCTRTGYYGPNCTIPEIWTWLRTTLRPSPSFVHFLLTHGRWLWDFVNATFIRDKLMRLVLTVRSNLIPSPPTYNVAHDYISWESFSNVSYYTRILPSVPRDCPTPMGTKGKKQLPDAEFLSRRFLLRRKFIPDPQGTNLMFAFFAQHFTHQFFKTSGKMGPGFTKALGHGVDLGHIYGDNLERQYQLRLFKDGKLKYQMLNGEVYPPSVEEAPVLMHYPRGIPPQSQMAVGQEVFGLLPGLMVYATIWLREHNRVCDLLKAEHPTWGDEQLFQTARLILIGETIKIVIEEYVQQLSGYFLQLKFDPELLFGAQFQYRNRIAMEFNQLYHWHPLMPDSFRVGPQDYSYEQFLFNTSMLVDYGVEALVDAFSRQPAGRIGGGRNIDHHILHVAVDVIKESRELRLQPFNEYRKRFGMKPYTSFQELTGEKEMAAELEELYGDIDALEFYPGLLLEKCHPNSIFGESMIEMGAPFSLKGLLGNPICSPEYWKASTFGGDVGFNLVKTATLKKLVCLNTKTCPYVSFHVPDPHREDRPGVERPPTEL

COLO 205 = experiment: Antiproliferative activity against human COLO 205 cells incubated for 72 hrs by MTS assay; type: functional, cell-based; details: COLO 205, 72 h
[2] = Inhibition of human recombinant COX-1 using arachidonic acid as substrate preincubated for 10 mins followed by substrate addition and measured after 5 mins by ELISA method
Hep 3B2 [3] = experiment: Antiproliferative activity against human Hep3B cells by MTS assay; type: functional, cell-based
HeLa [4] = experiment: Antiproliferative activity against human HeLa cells by MTS assay; type: functional, cell-based
Huh-7 = experiment: Antiproliferative activity against human Huh-7 cells incubated for 72 hrs by SRB method; type: functional, cell-based; details: Huh-7, 72 h
HCT-116 = experiment: Antiproliferative activity against human HCT-116 cells incubated for 72 hrs by SRB method; type: functional, cell-based; details: HCT-116, 72 h
Hep 3B2 [5] = experiment: Antiproliferative activity against human Hep3B cells; type: functional, cell-based
MCF7 [6] = experiment: Antiproliferative activity against human MCF7 cells; type: functional, cell-based
HeLa [7] = experiment: cells; details: Homo sapiens, 48 h
Description: Antiproliferative activity against human HeLa cells assessed as inhibition of cell growth incubated for 48 hrs by CellTiter 96 Aqueous One Solution Cell Proliferation Assay

[8] = Antiproliferative activity against HEK293T cells assessed as inhibition of cell growth incubated for 48 hrs by CellTiter 96 Aqueous One Solution Cell Proliferation Assay; type: toxicity, cell-based, HEK-293T; details: human
Hep 3B2 [9] = experiment: cells; details: Homo sapiens, Hep3B, 48 h
Description: Antiproliferative activity against human Hep3B cells assessed as inhibition of cell growth incubated for 48 hrs by CellTiter 96 Aqueous One Solution Cell Proliferation Assay

[10] = Antiproliferative activity against human LX2 cells assessed as inhibition of cell growth incubated for 48 hrs by CellTiter 96 Aqueous One Solution Cell Proliferation Assay; type: toxicity, cell-based; details: LX-2 cells
Caco-2 = experiment: Antiproliferative activity against human Caco-2 cells assessed as inhibition of cell growth incubated for 48 hrs by CellTiter 96 Aqueous One Solution Cell Proliferation Assay; type: functional, cell-based; details: Caco-2, 48 h
MCF7 [11] = experiment: cells; details: Homo sapiens, MCF7, 48 h
Description: Antiproliferative activity against human MCF7 cells assessed as inhibition of cell growth incubated for 48 hrs by CellTiter 96 Aqueous One Solution Cell Proliferation Assay

HepG2 = experiment: cells; details: Homo sapiens, HepG2, 48 h
Description: Antiproliferative activity against human HepG2 cells assessed as inhibition of cell growth incubated for 48 hrs by CellTiter 96 Aqueous One Solution Cell Proliferation Assay

[12] = biological target: T2, Prostaglandin G/H synthase 1 (Ovis aries, UniProt P05979)
T2 sequence (P05979 whole entry): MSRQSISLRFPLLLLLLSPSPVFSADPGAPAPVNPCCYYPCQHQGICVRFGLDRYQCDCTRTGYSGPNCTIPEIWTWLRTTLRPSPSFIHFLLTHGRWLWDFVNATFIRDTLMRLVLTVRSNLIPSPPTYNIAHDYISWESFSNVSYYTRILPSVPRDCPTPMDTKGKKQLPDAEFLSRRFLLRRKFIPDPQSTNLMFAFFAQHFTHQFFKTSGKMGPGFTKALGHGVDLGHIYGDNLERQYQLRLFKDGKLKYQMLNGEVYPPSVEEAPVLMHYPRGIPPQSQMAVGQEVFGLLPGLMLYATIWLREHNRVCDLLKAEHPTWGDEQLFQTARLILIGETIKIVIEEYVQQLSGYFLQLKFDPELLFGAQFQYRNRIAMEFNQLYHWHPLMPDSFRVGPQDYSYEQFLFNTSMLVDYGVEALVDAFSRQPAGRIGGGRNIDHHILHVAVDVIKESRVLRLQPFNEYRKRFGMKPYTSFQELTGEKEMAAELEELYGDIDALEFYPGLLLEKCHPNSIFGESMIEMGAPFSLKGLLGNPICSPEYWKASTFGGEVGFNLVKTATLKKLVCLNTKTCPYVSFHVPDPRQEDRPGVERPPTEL
Description: Inhibition of ovine COX-1 by EIA method

What does the source list for `COc1cccc(-c2nc(C(=O)Nc3ccc(C(F)(F)F)cc3)cs2)c1`?
IC50 [1]: 239 nM; IC50 (COLO 205): 30800 nM; IC50 [2]: 191 nM

Which IC50 (Hep 3B2 [3]) does the source give for `COc1ccc(NC(=O)c2c(-c3ccccc3Cl)noc2C)cc1OC` here?
The IC50 was 24 µg/mL (≈ 64.3 µM).

What about the IC50 (HeLa [4]) of the same compound?
The IC50 was 15.5 µg/mL (≈ 41.5 µM).

With `COc1ccc(-c2nc(C(=O)Nc3cc(OC)c(OC)c(OC)c3)cs2)cc1` as the compound, how does the IC50 (Huh-7) read?
Its IC50 is 17500 nM.

What about the IC50 (HCT-116) of the same compound?
The IC50 was 14600 nM.

What does the source list for `Cc1onc(-c2c(F)cccc2Cl)c1C(=O)Nc1ccc(C(C)(C)C)cc1`?
IC50 (Hep 3B2 [5]): 2.77 µg/mL (≈ 7.16 µM); IC50 (MCF7 [6]): 9.31 µg/mL (≈ 24.1 µM)

With `COc1cccc2c1C(=O)c1c(O)c3c(c(O)c1C2=O)C[C@@](O)(C(=O)CO)C[C@@H]3O[C@H]1C[C@H](N)[C@H](O)[C@H](C)O1` [DOXORUBICIN] as the compound, how does the IC50 (HeLa [7]) read?
Its IC50 is under 10 nM.

What about the IC50 at 48 h [8] of the same compound?
Its IC50 at 48 h is 38 nM.

And the IC50 (Hep 3B2 [9])?
The IC50 was 25 nM.

And the IC50 at 48 h [10]?
Its IC50 at 48 h is 210 nM.

And the IC50 (Caco-2)?
The IC50 was 24 nM.

And the IC50 (MCF7 [11])?
The IC50 was 53 nM.

Which IC50 (HeLa [7]) does the source give for `O=c1[nH]cc(F)c(=O)[nH]1` [FLUOROURACIL] here?
Its IC50 is 7790 nM.

What about the IC50 at 48 h [8] of the same compound?
Its IC50 at 48 h is 4070 nM.

And the IC50 (HepG2)?
The IC50 was 4070 nM.

What about the IC50 (Hep 3B2 [9]) of the same compound?
The IC50 was 5110 nM.

What about the IC50 at 48 h [10] of the same compound?
The IC50 at 48 h was 178 nM.

And the IC50 (Caco-2)?
The IC50 was 4750 nM.

What about the IC50 (MCF7 [11]) of the same compound?
The IC50 was 6510 nM.

For `CC(C(=O)O)c1cccc(C(=O)c2ccccc2)c1` (stereo not drawn) [KETOPROFEN], which IC50 [12] is on record?
The IC50 was 35 nM.
